# Data: ChEMBL document CHEMBL2074287, “Modulation of digoxin transport across Caco-2 cell monolayers by citrus fruit juices: lime, lemon, grapefruit, and pummelo” (Pharm Res, 2003)
# Biological target: ATP-dependent translocase ABCB1 (Homo sapiens, UniProt P08183)
# Assay: TP_TRANSPORTER: transepithelial transport of digoxin (Digoxin: 30nM) in Caco-2 cells
# Type: functional, cell-based
# Chain of ATP-dependent translocase ABCB1 (P08183 whole entry): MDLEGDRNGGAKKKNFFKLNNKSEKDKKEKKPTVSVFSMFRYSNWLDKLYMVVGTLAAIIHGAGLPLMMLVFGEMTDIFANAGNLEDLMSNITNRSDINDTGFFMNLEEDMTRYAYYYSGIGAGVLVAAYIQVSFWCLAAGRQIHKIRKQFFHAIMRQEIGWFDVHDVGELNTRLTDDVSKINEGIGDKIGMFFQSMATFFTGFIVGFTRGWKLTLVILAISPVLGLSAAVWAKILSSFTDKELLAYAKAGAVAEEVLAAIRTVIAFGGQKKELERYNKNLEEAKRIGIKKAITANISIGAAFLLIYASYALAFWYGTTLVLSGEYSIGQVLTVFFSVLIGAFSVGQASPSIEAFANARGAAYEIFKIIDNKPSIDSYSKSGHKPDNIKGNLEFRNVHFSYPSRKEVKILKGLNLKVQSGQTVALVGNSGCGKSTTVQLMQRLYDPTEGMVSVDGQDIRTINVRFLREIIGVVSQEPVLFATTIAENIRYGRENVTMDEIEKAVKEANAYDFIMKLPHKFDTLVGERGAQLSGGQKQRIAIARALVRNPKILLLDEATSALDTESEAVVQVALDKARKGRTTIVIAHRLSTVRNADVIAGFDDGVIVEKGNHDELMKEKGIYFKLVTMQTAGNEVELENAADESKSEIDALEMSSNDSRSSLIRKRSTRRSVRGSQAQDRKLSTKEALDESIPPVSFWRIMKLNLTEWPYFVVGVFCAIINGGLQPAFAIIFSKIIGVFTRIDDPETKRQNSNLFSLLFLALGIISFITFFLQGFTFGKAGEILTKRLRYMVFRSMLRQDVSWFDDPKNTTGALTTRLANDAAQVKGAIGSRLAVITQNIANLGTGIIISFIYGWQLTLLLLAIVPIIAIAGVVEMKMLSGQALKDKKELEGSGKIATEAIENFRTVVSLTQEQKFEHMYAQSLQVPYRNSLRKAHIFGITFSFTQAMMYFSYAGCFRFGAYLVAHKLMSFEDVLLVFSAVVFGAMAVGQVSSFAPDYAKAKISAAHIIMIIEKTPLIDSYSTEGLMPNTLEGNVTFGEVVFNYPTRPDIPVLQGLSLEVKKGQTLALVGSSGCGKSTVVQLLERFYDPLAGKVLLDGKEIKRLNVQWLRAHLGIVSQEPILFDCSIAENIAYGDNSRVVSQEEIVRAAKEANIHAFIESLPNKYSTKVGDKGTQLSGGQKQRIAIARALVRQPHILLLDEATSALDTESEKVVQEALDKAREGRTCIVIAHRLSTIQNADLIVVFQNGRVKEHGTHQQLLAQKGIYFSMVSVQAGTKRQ
row,Activity,Substance
1,inhibitor [+],GRAPEFRUIT JUICE
2,inhibitor [+],PUMMELO JUICE
